# Starred links: 1 amine or outer side, 2 acyl side, 3 side chain; linkers in the order of their positions; H or OH if unused. Positions of bridges follow the written chain, without caps; N, C: chain ends. Non-standard residues stand in square brackets, D forms with d. Residues, ends and D or L forms follow the SMILES beside them. Leu(3R-O(AcLeu(3R-OH))) = CC(=O)N[C@H](C(=O)O[C@H](C(C)C)[C@H](N)C(=O)O)[C@H](O)C(C)C; X1 = CO[C@H](C)C(C(=O)[*:2])N(C)[*:1]; dPhLac = O=C(O)[C@H](O)Cc1ccccc1; NMeA = CN[C@@H](C)C(=O)O; NMeDha = C=C(NC)C(=O)O
# Assays:
# [1] = system: tobacco smoke inhalation-induced airway inflammation; assay: Action of nasal drop administration on the tobacco smoke inhalation-induced airway inflammation; assay type: in vivo, BALB/c male mice; details: mice, nasal drop 1, 10 and 100 μg/kg once a day; bronchoalveolar lavage cell count at Day 11
# Experimental: BALB/c male mice (Charles River Laboratories Japan, Inc.) were used in experiments. Sodium pentobarbital (40 mg/kg) was administered intraperitoneally to the mice for anesthesia. During a period of time ranging from Day 0 to Day 10 (except for Days 5 and 6), the test compound (1, 10, and 100 μg/kg) were administered nasally to the mice once a day. The Vehicle group was similarly injected with physiological saline by nasal drop administration. There were 10 animals in each group. The mice were put into chambers at 1 hour after nasal drop administration, and using a tobacco smoke generator (SG-200, Sibata Scientific Technology Ltd.), the tobacco smoke was inhaled to a concentration in air up to 4% for 1 hour. After intraperitoneal administration of sodium pentobarbital (80 mg/kg) to the mice at Day 11, the mice were subject to blood removal to be euthanized. After respiratory arrest, the trachea was incised, bronchoalveolar lavage was performed with PBS(−) 0.5 mL×3 times, and the washing liquid was collected. The supernatant was removed by centrifugation, the cells were then resuspended in PBS(−), and for white blood cells (WBC), neutrophils (NEUT), lymphocytes (LYMPH), macrophages (MONO), and eosinophils (EO), the cell count was measured with a Multiple Parameter Automatic Hematology Analyzer (XT-2000i, Sysmex Corporation).
# [2] = system: LTD4-induced airway contraction; assay: Action on the LTD4-induced airway contraction response by intratracheal administration; assay type: in vivo, Hartley male guinea pigs; details: guinea pigs
# Experimental: Hartley male guinea pigs (Japan SLC, Inc.) were used in experiments. Urethane (1.2 g/kg) was administered intraperitoneally to the guinea pigs for anesthesia. Using needles (30 G), the test compounds (0.3, 1, and 3 μg/kg) at a volume of 0.5 mL/kg or physiological saline was administered by intratracheal injection (3 animals in each group). Cannulation for intravenous administration was carried out in the external jugular vein of the guinea pigs. A tracheostomy cannula was inserted through an incision in the trachea and mechanical ventilation (10 mL/kg, 60 times/min) was carried out using a mechanical ventilator (MODEL683, HARVARD). The mechanical ventilator circuit was connected with a pressure transducer (TP-400T, Nihon Kohden Corporation) and the change in airway pressure was measured. The airway pressure signal was amplified with a strain pressure amplifier (AP-601G, Nihon Kohden Corporation) and recorded on chart paper by a thermal pen recorder (LINEARCORDER F WR3701, Graphtec). The body temperature of the guinea pigs was maintained at 37° C. using a body temperature-maintaining device (BWT-100, Bio Research Center). At 30 minutes after injection by intratracheal administration of the test compound, a solution of LTD4 in physiological saline (0.3 μg/kg) was administered intravenously to induce the airway contraction response.
# G15 and G16 = details: Non-Patent Citation 3; cited from earlier work
smiles,measurement,setting,value
C=C1C(=O)N[C@@H](C)C(=O)N(C)[C@@H](C)C(=O)N[C@@H]([C@H](OC(=O)[C@@H](NC(C)=O)[C@H](O)C(C)C)C(C)C)C(=O)N(C)C([C@@H](C)OC)C(=O)O[C@H](C)[C@H](NC(C)=O)C(=O)O[C@H](Cc2ccccc2)C(=O)N1C (stereo partly drawn) [Ref 1] (Ac-T[dPhLac][NMeDha]A[NMeA][Leu(3R-O(AcLeu(3R-OH)))][X1]; ester 1-C),infiltration of eosinophils into the airway,[1],significantly inhibited
same,infiltration of lymphocytes into the airway,[1],significantly inhibited
same,infiltration of neutrophils into the airway,[1],significantly inhibited
same,ED50,"[2]; Cavia porcellus, iv, intratracheal, 30 minutes before LTD4 0.3 μg/kg i.v., read-out: ED50 value of inhibition of LTD4-induced airway contraction",1.1 µg/kg
same,LTD4-induced airway contraction response,[2]; intratracheal administration,inhibited
same,inhibition of G15 and G16,G15 and G16,does not inhibit

# Source: patent publication US20110207655A1, “CYCLIC DEPSIPEPTIDE COMPOUND AND USE THEREOF” (Astellas Pharma Inc., priority 2008, published 2011)
